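Compound exposure: 48 hours, 5 concentrations, 96-well plates. GI50 marks 50% less growth.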 Active and inactive are the calls of the source. Cut-off read from the data, not from the text of the source: active = GI50 up to about 1.1 µM and inactive = higher.
Tests used:
Assay in all cases: NCI tumour cell line growth inhibition, 48 h
HCT-15 = tested on: HCT-15
UO-31 = tested on: UO-31
ACHN = tested on: ACHN
RPMI-8226 = tested on: RPMI-8226
CAKI-1 = tested on: CAKI-1
KM12 = tested on: KM12
DLD-1 = tested on: DLD-1
UACC-257 = tested on: UACC-257
A498 = tested on: A498
XF498 = tested on: XF498
T47D = tested on: T47D
HT-29 = tested on: HT-29
HOP-62 = tested on: HOP-62
SF-268 = tested on: SF-268
KM-20L2 = tested on: KM-20L2
OVCAR-4 = tested on: OVCAR-4
MDA-MB-435 = tested on: MDA-MB-435
MDA-MB-231 = tested on: MDA-MB-231
SN12C = tested on: SN12C
DU-145 = tested on: DU-145
DMS-273 = tested on: DMS-273
HCT-116 = tested on: HCT-116
SNB-78 = tested on: SNB-78
HOP-18 = tested on: HOP-18
OVCAR-3 = tested on: OVCAR-3
HL-60 = tested on: HL-60
K562 = tested on: K562
SF-295 = tested on: SF-295
LOX IMVI = tested on: LOX IMVI
UACC-62 = tested on: UACC-62
NCI-H522 = tested on: NCI-H522
HOP-92 = tested on: HOP-92
786-0 = tested on: 786-0
HCC 2998 = tested on: HCC 2998
NCI/ADR-RES = tested on: NCI/ADR-RES
A549 = tested on: A549
Hs-578T = tested on: Hs-578T
MDA-N = tested on: MDA-N
MCF7 = tested on: MCF7
NCI-H226 = tested on: NCI-H226
SNB-19 = tested on: SNB-19
SK-MEL-5 = tested on: SK-MEL-5
SNB-75 = tested on: SNB-75
SK-MEL-28 = tested on: SK-MEL-28
OVCAR-8 = tested on: OVCAR-8
Malme-3M = tested on: Malme-3M
IGROV-1 = tested on: IGROV-1
COLO 205 = tested on: COLO 205
MOLT-4 = tested on: MOLT-4
OVCAR-5 = tested on: OVCAR-5
CCRF-CEM = tested on: CCRF-CEM
M19-MEL = tested on: M19-MEL
TK-10 = tested on: TK-10
SK-MEL-2 = tested on: SK-MEL-2
SK-OV-3 = tested on: SK-OV-3
NCI-H23 = tested on: NCI-H23
BT-549 = tested on: BT-549
U-251 = tested on: U-251
SR = tested on: SR
SW-620 = tested on: SW-620
RXF 393 = tested on: RXF 393
NCI-H460 = tested on: NCI-H460
M14 = tested on: M14
EKVX = tested on: EKVX
SF-539 = tested on: SF-539
PC-3 = tested on: PC-3
DMS-114 = tested on: DMS-114
LXFL 529 = tested on: LXFL 529

For `NS(=O)(=O)OCCCCCCCOS(N)(=O)=O`, the GI50 (HCT-15) was 349 µM, the GI50 (UO-31) was 265 µM (inactive) and the GI50 (ACHN) was 64.9 µM (inactive). The GI50 (RPMI-8226) was 296 µM (inactive), the GI50 (CAKI-1) was 84.3 µM (inactive) and the GI50 (KM12) was 379 µM (inactive). The GI50 (DLD-1) was 495 µM (inactive), the GI50 (UACC-257) was 451 µM (inactive) and the GI50 (A498) was 377 µM (inactive). For the same compound, the GI50 (XF498) was 54.8 µM (inactive), the GI50 (T47D) was 246 µM (inactive) and the GI50 (HT-29) was 504 µM (inactive). For the same compound, the GI50 (HOP-62) was 142 µM (inactive), the GI50 (SF-268) was 130 µM (inactive) and the GI50 (KM-20L2) was 488 µM (inactive). For the same compound, the GI50 (OVCAR-4) was 409 µM (inactive), the GI50 (MDA-MB-435) was 410 µM (inactive) and the GI50 (MDA-MB-231) was 445 µM (inactive). For the same compound, the GI50 (SN12C) was 133 µM (inactive), the GI50 (DU-145) was 124 µM (inactive) and the GI50 (DMS-273) was 68.7 µM (inactive). The GI50 (HCT-116) was 309 µM (inactive), the GI50 (SNB-78) was 526 µM (inactive) and the GI50 (HOP-18) was 689 µM (inactive). The GI50 (OVCAR-3) was 361 µM (inactive), the GI50 (HL-60) was 33 µM (inactive) and the GI50 (K562) was 347 µM (inactive). For the same compound, the GI50 (SF-295) was > 92.9 µM (inactive), the GI50 (LOX IMVI) was 161 µM (inactive) and the GI50 (UACC-62) was 61.4 µM (inactive). The GI50 (NCI-H522) was 259 µM (inactive), the GI50 (HOP-92) was 215 µM (inactive) and the GI50 (786-0) was 144 µM (inactive). The GI50 (HCC 2998) was 300 µM (inactive), the GI50 (NCI/ADR-RES) was 273 µM (inactive) and the GI50 (A549) was 109 µM (inactive). For the same compound, the GI50 (Hs-578T) was 527 µM (inactive), the GI50 (MDA-N) was 392 µM (inactive) and the GI50 (MCF7) was 101 µM (inactive). The GI50 (NCI-H226) was 292 µM (inactive), the GI50 (SNB-19) was 275 µM (inactive) and the GI50 (SK-MEL-5) was 319 µM (inactive). The GI50 (SNB-75) was 94.8 µM (inactive), the GI50 (SK-MEL-28) was 535 µM (inactive) and the GI50 (OVCAR-8) was 221 µM (inactive). For the same compound, the GI50 (Malme-3M) was 437 µM (inactive), the GI50 (IGROV-1) was 376 µM (inactive) and the GI50 (COLO 205) was 394 µM (inactive). For the same compound, the GI50 (MOLT-4) was 24.2 µM (inactive), the GI50 (OVCAR-5) was 408 µM (inactive) and the GI50 (CCRF-CEM) was 46.8 µM (inactive). For the same compound, the GI50 (M19-MEL) was 383 µM (inactive), the GI50 (TK-10) was 649 µM (inactive) and the GI50 (SK-MEL-2) was 364 µM (inactive). The GI50 (SK-OV-3) was 471 µM (inactive), the GI50 (NCI-H23) was 245 µM (inactive) and the GI50 (BT-549) was 151 µM (inactive). For the same compound, the GI50 (U-251) was 198 µM (inactive), the GI50 (SR) was 31.6 µM (inactive) and the GI50 (SW-620) was 334 µM (inactive). For the same compound, the GI50 (RXF 393) was 289 µM (inactive), the GI50 (NCI-H460) was 23 µM (inactive) and the GI50 (M14) was 187 µM (inactive). The GI50 (EKVX) was 272 µM (inactive), the GI50 (SF-539) was 138 µM (inactive) and the GI50 (PC-3) was 249 µM (inactive). For the same compound, the GI50 (DMS-114) was 130 µM (inactive).

With `O=C(C(O)c1cn(Cc2ccccc2)c2ccccc12)N1CCCCC1` (configuration not stated) the GI50 (HCT-15) was 76.4 µM, the GI50 (UO-31) was > 100 µM (inactive) and the GI50 (ACHN) was 53.5 µM (inactive). For the same compound, the GI50 (RPMI-8226) was > 100 µM (inactive), the GI50 (KM12) was > 100 µM (inactive) and the GI50 (DLD-1) was > 100 µM (inactive). For the same compound, the GI50 (UACC-257) was 48.9 µM (inactive), the GI50 (A498) was > 100 µM (inactive) and the GI50 (XF498) was 93.1 µM (inactive). The GI50 (HT-29) was > 100 µM (inactive), the GI50 (HOP-62) was > 100 µM (inactive) and the GI50 (SF-268) was 83.2 µM (inactive). The GI50 (KM-20L2) was 38.8 µM (inactive), the GI50 (SN12C) was 82.6 µM (inactive) and the GI50 (DMS-273) was > 100 µM (inactive). For the same compound, the GI50 (HCT-116) was > 100 µM (inactive), the GI50 (SNB-78) was > 10 µM (inactive) and the GI50 (HOP-18) was 24.1 µM (inactive). The GI50 (OVCAR-3) was 50 µM (inactive), the GI50 (HL-60) was > 100 µM (inactive) and the GI50 (K562) was 30.2 µM (inactive). The GI50 (SF-295) was 76 µM (inactive), the GI50 (LOX IMVI) was > 100 µM (inactive) and the GI50 (UACC-62) was 95.1 µM (inactive). The GI50 (NCI-H522) was 44.4 µM (inactive), the GI50 (LXFL 529) was 79.6 µM (inactive) and the GI50 (HOP-92) was > 100 µM (inactive). For the same compound, the GI50 (786-0) was > 100 µM (inactive), the GI50 (HCC 2998) was > 100 µM (inactive) and the GI50 (A549) was 45 µM (inactive). The GI50 (NCI-H226) was 34.4 µM (inactive), the GI50 (SNB-19) was > 100 µM (inactive) and the GI50 (SK-MEL-5) was 30.1 µM (inactive). For the same compound, the GI50 (SNB-75) was > 100 µM (inactive), the GI50 (SK-MEL-28) was > 10 µM (inactive) and the GI50 (OVCAR-8) was > 100 µM (inactive). The GI50 (Malme-3M) was > 100 µM (inactive), the GI50 (IGROV-1) was 30.4 µM (inactive) and the GI50 (COLO 205) was > 100 µM (inactive). The GI50 (MOLT-4) was 39.9 µM (inactive), the GI50 (OVCAR-5) was > 100 µM (inactive) and the GI50 (CCRF-CEM) was 67.1 µM (inactive). The GI50 (M19-MEL) was > 100 µM (inactive), the GI50 (TK-10) was > 10 µM (inactive) and the GI50 (SK-MEL-2) was > 100 µM (inactive). For the same compound, the GI50 (SK-OV-3) was 72.8 µM (inactive), the GI50 (NCI-H23) was > 10 µM (inactive) and the GI50 (U-251) was > 10 µM (inactive). For the same compound, the GI50 (SR) was > 100 µM (inactive), the GI50 (SW-620) was > 100 µM (inactive) and the GI50 (RXF 393) was > 10 µM (inactive). The GI50 (M14) was > 100 µM (inactive), the GI50 (EKVX) was 54.6 µM (inactive) and the GI50 (SF-539) was > 100 µM (inactive). The GI50 (DMS-114) was > 100 µM (inactive).

— ChEMBL document CHEMBL1201862, “PubChem BioAssay data set” (2004)
